Assay results from the kinase profiling compilation of Christmann-Franck et al. (2016).
Values belong to the compound of their own block, whether it stands above or below them.

Key:
[1] = test system: EGFR (human), P00533 [G719S]; test: KINOMEscan competition binding; details: compound 10.0 µM
[2] = molecular target: MAP2K2 (human) (UniProt P36507); test: KINOMEscan competition binding; details: compound 10.0 µM
[3] = molecular target: PIK3CD (human) (UniProt O00329); test: KINOMEscan competition binding; details: compound 10.0 µM
[4] = test system: EGFR (human), P00533 [747-751 del / S ins]; test: KINOMEscan competition binding; details: compound 10.0 µM
[5] = test system: EGFR (human), P00533 [P753S; 747-752 del]; test: KINOMEscan competition binding; details: compound 10.0 µM
[6] = molecular target: PIK3C2B (human) (UniProt O00750); test: KINOMEscan competition binding; details: compound 10.0 µM
[7] = molecular target: MAP2K4 (human) (UniProt P45985); test: KINOMEscan competition binding; details: compound 10.0 µM
[8] = molecular target: PIK3CB (human) (UniProt P42338); test: KINOMEscan competition binding; details: compound 10.0 µM
[9] = molecular target: PIM2 (human) (UniProt Q9P1W9); test: SelectScreen, TR FRET
Chain of PIM2 (human) (Q9P1W9 whole entry, looked up): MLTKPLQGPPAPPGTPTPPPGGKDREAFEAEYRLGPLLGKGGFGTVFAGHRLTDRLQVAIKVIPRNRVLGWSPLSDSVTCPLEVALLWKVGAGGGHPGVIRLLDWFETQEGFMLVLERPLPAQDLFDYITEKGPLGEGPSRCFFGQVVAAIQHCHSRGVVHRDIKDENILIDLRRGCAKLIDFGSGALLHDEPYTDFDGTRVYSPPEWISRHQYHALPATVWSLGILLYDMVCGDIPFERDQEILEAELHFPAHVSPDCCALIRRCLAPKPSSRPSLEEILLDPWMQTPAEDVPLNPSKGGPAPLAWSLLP

[10] = molecular target: PIM1 (human) (UniProt P11309); test: SelectScreen, TR FRET
Chain of PIM1 (human) (P11309 whole entry, looked up): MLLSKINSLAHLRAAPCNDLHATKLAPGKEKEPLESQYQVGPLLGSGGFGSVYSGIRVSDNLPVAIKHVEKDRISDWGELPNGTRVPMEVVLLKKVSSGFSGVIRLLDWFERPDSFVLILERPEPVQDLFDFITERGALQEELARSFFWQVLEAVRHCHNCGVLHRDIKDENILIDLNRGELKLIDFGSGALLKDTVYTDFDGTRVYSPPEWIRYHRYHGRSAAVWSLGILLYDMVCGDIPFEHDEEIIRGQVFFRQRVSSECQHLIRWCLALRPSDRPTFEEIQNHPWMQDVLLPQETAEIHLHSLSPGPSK

[11] = molecular target: CLK2 (human) (UniProt P49760); test: KINOMEscan competition binding; details: compound 10.0 µM
[12] = molecular target: STK17A (human) (UniProt Q9UEE5); test: KINOMEscan competition binding; details: compound 10.0 µM
[13] = molecular target: PAK7 (human) (UniProt Q9P286); test: KINOMEscan competition binding; details: compound 10.0 µM
[14] = molecular target: PIM2 (human) (UniProt Q9P1W9); test: KINOMEscan competition binding; details: compound 10.0 µM
[15] = molecular target: AAK1 (human) (UniProt Q2M2I8); test: KINOMEscan competition binding; details: compound 10.0 µM
[16] = molecular target: MAP2K3 (human) (UniProt P46734); test: KINOMEscan competition binding; details: compound 10.0 µM
[17] = molecular target: ACVR2B (human) (UniProt Q13705); test: KINOMEscan competition binding; details: compound 10.0 µM
[18] = molecular target: TTK (human) (UniProt P33981); test: KINOMEscan competition binding; details: compound 10.0 µM
Chain of TTK (human) (P33981 whole entry, looked up): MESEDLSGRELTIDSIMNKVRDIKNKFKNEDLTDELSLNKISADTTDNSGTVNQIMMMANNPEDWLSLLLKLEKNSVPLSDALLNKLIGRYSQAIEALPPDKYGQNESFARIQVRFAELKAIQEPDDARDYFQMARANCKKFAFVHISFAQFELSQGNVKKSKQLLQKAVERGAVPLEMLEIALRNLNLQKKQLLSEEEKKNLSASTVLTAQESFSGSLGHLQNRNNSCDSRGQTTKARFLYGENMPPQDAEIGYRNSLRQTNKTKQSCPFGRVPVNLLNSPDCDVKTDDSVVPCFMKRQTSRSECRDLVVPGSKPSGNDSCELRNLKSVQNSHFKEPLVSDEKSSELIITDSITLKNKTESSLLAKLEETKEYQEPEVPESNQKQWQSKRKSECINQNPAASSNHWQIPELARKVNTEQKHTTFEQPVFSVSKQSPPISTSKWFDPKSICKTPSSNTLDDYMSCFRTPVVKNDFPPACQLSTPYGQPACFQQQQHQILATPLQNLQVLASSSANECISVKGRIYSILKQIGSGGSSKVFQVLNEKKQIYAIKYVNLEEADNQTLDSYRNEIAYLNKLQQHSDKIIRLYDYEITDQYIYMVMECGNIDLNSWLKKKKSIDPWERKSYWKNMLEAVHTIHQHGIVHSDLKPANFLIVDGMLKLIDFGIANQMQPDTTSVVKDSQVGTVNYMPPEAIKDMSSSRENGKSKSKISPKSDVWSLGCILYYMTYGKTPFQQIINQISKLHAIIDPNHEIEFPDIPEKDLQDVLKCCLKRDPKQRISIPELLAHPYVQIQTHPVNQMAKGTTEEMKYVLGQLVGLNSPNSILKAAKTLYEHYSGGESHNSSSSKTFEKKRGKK

[19] = molecular target: PIM3 (human) (UniProt Q86V86); test: KINOMEscan competition binding; details: compound 10.0 µM
[20] = molecular target: DAPK1 (human) (UniProt P53355); test: KINOMEscan competition binding; details: compound 10.0 µM
[21] = molecular target: CAMK2B (human) (UniProt Q13554); test: KINOMEscan competition binding; details: compound 10.0 µM
[22] = molecular target: PAK6 (human) (UniProt Q9NQU5); test: KINOMEscan competition binding; details: compound 10.0 µM
[23] = molecular target: DAPK2 (human) (UniProt Q9UIK4); test: KINOMEscan competition binding; details: compound 10.0 µM
[24] = molecular target: MAPK8 (human) (UniProt P45983); test: KINOMEscan competition binding; details: compound 10.0 µM
[25] = molecular target: CAMK1 (human) (UniProt Q14012); test: KINOMEscan competition binding; details: compound 10.0 µM
[26] = molecular target: CAMK1D (human) (UniProt Q8IU85); test: KINOMEscan competition binding; details: compound 10.0 µM
[27] = molecular target: MAP3K7 (human) (UniProt O43318); test: KINOMEscan competition binding; details: compound 10.0 µM
[28] = molecular target: PAK4 (human) (UniProt O96013); test: KINOMEscan competition binding; details: compound 10.0 µM
[29] = molecular target: DDR1 (human) (UniProt Q08345); test: KINOMEscan competition binding; details: compound 10.0 µM
Chain of DDR1 (human) (Q08345 whole entry, looked up): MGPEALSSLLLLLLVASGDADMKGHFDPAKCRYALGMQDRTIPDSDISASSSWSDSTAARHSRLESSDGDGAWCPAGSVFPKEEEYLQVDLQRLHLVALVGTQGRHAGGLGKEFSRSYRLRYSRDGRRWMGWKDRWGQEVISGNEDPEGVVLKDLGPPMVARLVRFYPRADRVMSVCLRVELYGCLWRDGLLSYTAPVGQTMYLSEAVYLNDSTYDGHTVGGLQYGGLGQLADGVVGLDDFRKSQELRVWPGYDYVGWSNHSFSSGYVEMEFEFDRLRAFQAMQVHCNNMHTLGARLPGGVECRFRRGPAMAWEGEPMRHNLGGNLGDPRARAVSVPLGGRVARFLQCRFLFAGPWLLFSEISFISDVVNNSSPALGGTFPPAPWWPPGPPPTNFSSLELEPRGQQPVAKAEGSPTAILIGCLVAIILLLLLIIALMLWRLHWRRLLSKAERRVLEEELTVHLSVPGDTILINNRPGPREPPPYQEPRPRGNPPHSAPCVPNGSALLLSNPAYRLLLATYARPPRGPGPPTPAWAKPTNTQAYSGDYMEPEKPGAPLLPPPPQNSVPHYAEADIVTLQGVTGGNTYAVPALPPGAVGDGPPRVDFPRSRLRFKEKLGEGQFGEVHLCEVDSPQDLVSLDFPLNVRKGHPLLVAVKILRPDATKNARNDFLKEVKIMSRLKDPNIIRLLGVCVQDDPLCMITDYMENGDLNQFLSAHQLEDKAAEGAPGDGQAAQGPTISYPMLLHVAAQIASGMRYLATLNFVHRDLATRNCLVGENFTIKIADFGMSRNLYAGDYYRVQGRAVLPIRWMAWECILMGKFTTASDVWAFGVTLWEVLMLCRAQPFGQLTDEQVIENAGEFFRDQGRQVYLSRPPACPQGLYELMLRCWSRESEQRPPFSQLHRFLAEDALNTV

[30] = molecular target: PLK4 (human) (UniProt O00444); test: KINOMEscan competition binding; details: compound 10.0 µM
[31] = molecular target: HIPK1 (human) (UniProt Q86Z02); test: KINOMEscan competition binding; details: compound 10.0 µM
[32] = molecular target: CSNK2A2 (human) (UniProt P19784); test: KINOMEscan competition binding; details: compound 10.0 µM
Chain of CSNK2A2 (human) (P19784 whole entry, looked up): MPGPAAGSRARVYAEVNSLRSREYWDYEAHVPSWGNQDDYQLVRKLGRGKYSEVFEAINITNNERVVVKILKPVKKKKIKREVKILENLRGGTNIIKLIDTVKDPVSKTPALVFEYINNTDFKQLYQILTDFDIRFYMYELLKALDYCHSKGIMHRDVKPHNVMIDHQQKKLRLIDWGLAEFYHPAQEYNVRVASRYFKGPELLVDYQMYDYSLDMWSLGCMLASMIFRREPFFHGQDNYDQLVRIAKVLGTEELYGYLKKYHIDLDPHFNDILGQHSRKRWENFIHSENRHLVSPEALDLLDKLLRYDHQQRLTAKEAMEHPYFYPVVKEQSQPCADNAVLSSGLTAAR

[33] = molecular target: GAK (human) (UniProt O14976); test: KINOMEscan competition binding; details: compound 10.0 µM
[34] = molecular target: MYLK (human) (UniProt Q15746); test: KINOMEscan competition binding; details: compound 10.0 µM
[35] = molecular target: PIM1 (human) (UniProt P11309); test: KINOMEscan competition binding; details: compound 10.0 µM
[36] = molecular target: PHKG2 (human) (UniProt P15735); test: KINOMEscan competition binding; details: compound 10.0 µM
[37] = molecular target: STK17B (human) (UniProt O94768); test: KINOMEscan competition binding; details: compound 10.0 µM
[38] = molecular target: MAPK10 (human) (UniProt P53779); test: KINOMEscan competition binding; details: compound 10.0 µM
[39] = molecular target: DAPK3 (human) (UniProt O43293); test: KINOMEscan competition binding; details: compound 10.0 µM
[40] = molecular target: GSK3A (human) (UniProt P49840); test: KINOMEscan competition binding; details: compound 10.0 µM
[41] = molecular target: TGFBR2 (human) (UniProt P37173); test: KINOMEscan competition binding; details: compound 10.0 µM
Chain of TGFBR2 (human) (P37173 whole entry, looked up): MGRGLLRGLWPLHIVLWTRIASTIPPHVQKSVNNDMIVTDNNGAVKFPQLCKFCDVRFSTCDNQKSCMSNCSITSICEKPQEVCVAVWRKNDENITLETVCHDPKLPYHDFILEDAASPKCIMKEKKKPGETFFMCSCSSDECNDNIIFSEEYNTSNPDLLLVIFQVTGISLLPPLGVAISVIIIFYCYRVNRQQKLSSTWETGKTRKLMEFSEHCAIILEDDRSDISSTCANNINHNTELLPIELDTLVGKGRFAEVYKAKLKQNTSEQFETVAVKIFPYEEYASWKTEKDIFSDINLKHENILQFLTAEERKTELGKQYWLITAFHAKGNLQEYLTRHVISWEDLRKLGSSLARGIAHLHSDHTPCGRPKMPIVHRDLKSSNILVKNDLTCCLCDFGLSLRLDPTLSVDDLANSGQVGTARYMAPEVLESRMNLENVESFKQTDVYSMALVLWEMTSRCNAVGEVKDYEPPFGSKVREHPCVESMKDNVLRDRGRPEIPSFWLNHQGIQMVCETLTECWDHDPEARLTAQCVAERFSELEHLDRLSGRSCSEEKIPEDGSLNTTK

[42] = molecular target: TYK2 JH2 pseudokinase (human) (UniProt P29597); test: KINOMEscan competition binding; details: compound 10.0 µM
[43] = molecular target: TAOK3 (human) (UniProt Q9H2K8); test: KINOMEscan competition binding; details: compound 10.0 µM
Chain of TAOK3 (human) (Q9H2K8 whole entry, looked up): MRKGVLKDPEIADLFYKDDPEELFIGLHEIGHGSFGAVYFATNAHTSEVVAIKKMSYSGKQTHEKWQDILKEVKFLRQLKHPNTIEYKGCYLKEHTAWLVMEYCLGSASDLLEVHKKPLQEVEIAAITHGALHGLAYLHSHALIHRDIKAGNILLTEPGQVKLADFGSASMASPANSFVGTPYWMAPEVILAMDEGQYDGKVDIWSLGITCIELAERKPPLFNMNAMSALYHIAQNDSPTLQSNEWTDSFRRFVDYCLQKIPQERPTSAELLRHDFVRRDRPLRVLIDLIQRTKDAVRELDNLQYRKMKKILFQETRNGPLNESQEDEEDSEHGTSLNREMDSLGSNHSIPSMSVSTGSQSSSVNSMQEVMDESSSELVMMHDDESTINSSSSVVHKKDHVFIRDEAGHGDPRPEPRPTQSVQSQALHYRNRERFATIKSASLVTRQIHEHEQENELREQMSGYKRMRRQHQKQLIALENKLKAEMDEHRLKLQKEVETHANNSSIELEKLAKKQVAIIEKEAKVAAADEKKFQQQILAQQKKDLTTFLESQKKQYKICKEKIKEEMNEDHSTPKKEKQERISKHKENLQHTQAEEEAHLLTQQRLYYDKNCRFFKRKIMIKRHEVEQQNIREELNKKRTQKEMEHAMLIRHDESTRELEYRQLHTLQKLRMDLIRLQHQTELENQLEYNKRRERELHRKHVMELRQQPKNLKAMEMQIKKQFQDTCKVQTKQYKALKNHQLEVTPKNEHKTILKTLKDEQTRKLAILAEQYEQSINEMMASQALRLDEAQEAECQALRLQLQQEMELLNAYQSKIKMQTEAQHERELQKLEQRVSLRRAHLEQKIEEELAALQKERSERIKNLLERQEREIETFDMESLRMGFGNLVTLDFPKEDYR

[44] = molecular target: EPHA3 (human) (UniProt P29320); test: KINOMEscan competition binding; details: compound 10.0 µM
[45] = molecular target: TAOK1 (human) (UniProt Q7L7X3); test: KINOMEscan competition binding; details: compound 10.0 µM
[46] = molecular target: STK16 (human) (UniProt O75716); test: KINOMEscan competition binding; details: compound 10.0 µM
[47] = molecular target: CSK (human) (UniProt P41240); test: KINOMEscan competition binding; details: compound 10.0 µM
[48] = molecular target: LATS2 (human) (UniProt Q9NRM7); test: KINOMEscan competition binding; details: compound 10.0 µM
[49] = molecular target: RIPK4 (human) (UniProt P57078); test: KINOMEscan competition binding; details: compound 10.0 µM
Chain of RIPK4 (human) (P57078 whole entry, looked up): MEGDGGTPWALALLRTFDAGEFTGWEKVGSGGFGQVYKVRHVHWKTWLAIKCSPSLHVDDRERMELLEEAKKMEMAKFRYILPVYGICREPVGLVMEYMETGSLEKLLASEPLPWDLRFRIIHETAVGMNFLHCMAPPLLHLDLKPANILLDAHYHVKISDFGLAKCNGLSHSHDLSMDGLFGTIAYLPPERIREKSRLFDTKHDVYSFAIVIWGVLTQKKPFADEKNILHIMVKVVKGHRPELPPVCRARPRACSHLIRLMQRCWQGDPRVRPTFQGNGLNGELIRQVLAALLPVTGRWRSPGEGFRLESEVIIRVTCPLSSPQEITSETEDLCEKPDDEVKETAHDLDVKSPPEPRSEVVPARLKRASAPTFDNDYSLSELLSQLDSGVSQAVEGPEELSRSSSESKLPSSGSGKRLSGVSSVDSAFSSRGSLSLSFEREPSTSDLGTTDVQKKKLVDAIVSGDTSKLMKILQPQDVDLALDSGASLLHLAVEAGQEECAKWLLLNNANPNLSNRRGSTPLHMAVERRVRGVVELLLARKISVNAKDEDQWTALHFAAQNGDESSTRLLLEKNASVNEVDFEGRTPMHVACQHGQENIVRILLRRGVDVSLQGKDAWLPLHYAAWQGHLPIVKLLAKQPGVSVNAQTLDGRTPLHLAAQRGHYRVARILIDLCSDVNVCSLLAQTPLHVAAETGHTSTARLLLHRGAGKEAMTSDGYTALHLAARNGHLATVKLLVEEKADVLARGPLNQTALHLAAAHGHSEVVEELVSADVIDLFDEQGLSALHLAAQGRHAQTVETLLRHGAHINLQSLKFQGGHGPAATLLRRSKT

- kinase still bound, per cent of control [1]: 6.9%
- kinase still bound, per cent of control [2]: 17%
- kinase still bound, per cent of control [3]: 0%
- kinase still bound, per cent of control [4]: 17%
- kinase still bound, per cent of control [5]: 16%
- kinase still bound, per cent of control [6]: 0.6%
- kinase still bound, per cent of control [7]: 12%
- kinase still bound, per cent of control [8]: 0%
Compound: O=C1NC(=O)C(=Cc2ccc(-c3ccc(S(=O)(=O)N4CCNCC4)cc3)o2)C(=O)N1

- IC50 [9]: 662 nM
- IC50 [10]: 5050 nM
- kinase still bound, per cent of control [11]: 21%
- kinase still bound, per cent of control [12]: 2.4%
- kinase still bound, per cent of control [13]: 34%
- kinase still bound, per cent of control [14]: 0.5%
- kinase still bound, per cent of control [15]: 26%
- kinase still bound, per cent of control [16]: 20%
- kinase still bound, per cent of control [17]: 24%
- kinase still bound, per cent of control [18]: 18%
- kinase still bound, per cent of control [19]: 1.9%
- kinase still bound, per cent of control [20]: 32%
- kinase still bound, per cent of control [21]: 29%
- kinase still bound, per cent of control [22]: 30%
- kinase still bound, per cent of control [23]: 7.1%
- kinase still bound, per cent of control [24]: 14%
- kinase still bound, per cent of control [25]: 20%
- kinase still bound, per cent of control [26]: 29%
- kinase still bound, per cent of control [27]: 13%
- kinase still bound, per cent of control [28]: 29%
- kinase still bound, per cent of control [29]: 22%
- kinase still bound, per cent of control [30]: 1%
- kinase still bound, per cent of control [31]: 0.15%
- kinase still bound, per cent of control [32]: 34%
- kinase still bound, per cent of control [33]: 28%
- kinase still bound, per cent of control [34]: 21%
- kinase still bound, per cent of control [35]: 1.8%
- kinase still bound, per cent of control [36]: 29%
- kinase still bound, per cent of control [37]: 0.6%
- kinase still bound, per cent of control [38]: 16%
- kinase still bound, per cent of control [39]: 15%
- kinase still bound, per cent of control [40]: 32%
- kinase still bound, per cent of control [41]: 11%
- kinase still bound, per cent of control [42]: 2.6%
- kinase still bound, per cent of control [43]: 5.6%
- kinase still bound, per cent of control [44]: 32%
- kinase still bound, per cent of control [45]: 5.8%
- kinase still bound, per cent of control [46]: 22%
- kinase still bound, per cent of control [47]: 30%
- kinase still bound, per cent of control [48]: 31%
- kinase still bound, per cent of control [49]: 1%
Compound: Cc1cn(-c2cc(NC(=O)c3cccc4cc(-c5ccc(/C=C6\SC(=N)NC6=O)o5)ccc34)cc(C(F)(F)F)c2)cn1
